Results from patent US9382295B2, “Cyclic depsipeptide compounds and their uses” (Cypralis Limited, priority 2012, dated 2016).

Experiments:
cyclophilin D (Cyp D) = cyclophilin D (Cyp D) (Homo sapiens, UniProt P30405); test: Protease-free PPIase assay, cyclophilin D; format: biochemical
In short: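 Cis-trans isomerization of a succinimide-peptide substrate (60 µM final) by 2 nM enzyme was followed at 330 nm in 35 mM HEPES pH 7.8 with 50 µM DTT, stirred at 10.0 °C, DMSO ≤0.5%. First-order rate constants minus background were fitted against inhibitor concentration to give Ki.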

cyclophilin A (Cyp A) = target: T1, cyclophilin A (Cyp A) (Homo sapiens, UniProt P62937); test: Protease-free PPIase assay, cyclophilin A; format: biochemical
T1 construct: purchased Sigma C3805
In short: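 Protease-free cis-trans isomerisation: 2 nM recombinant human cyclophilin A with 60 μM succinimide-peptide substrate in 35 mM HEPES pH 7.8 plus DTT, at 10.0 °C, max 0.5% DMSO. Absorbance at 330 nm was fitted to first-order kinetics, background subtracted, and catalytic rates versus inhibitor concentration gave Ki.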

Chain of cyclophilin D (Cyp D) (P30405 30-207): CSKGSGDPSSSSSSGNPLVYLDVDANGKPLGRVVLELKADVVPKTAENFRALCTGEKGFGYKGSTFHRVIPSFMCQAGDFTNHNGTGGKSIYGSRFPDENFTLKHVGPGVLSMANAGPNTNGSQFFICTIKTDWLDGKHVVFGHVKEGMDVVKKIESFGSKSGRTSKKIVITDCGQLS
T1 sequence (P62937 whole entry): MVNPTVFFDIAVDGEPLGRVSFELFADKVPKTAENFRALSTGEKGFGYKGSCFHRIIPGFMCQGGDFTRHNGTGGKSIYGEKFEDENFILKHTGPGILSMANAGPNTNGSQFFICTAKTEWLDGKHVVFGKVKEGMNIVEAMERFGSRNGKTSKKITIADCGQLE

Ki (cyclophilin D (Cyp D)): 6.5 nM | Ki (cyclophilin A (Cyp A)): 9.2 nM
Compound: CC(C)CC1NC(=O)[C@H](CC(C)C)N(C)C(=O)CN(C)C(=O)C([C@@H](C)O)NC(=O)C([C@H](O)[C@H](C)CCN2CCOCC2)N(C)C(=O)C(C(C)C)N(C)C(=O)C(CC(C)C)NC(=O)C(CC(C)C)N(C)C(=O)C(C(C)C)OC(=O)C(C)NC(=O)C(CC(C)C)N(C)C1=O (stereo in doubt) [Example 2, cyclo-[(3R,4R,5S)-4-(hydroxy)-3-methyl-5-(methylamino)-1-N-morpholino-hexanoic acid-Thr-Sar-MeLeu-Leu-MeLeu-Ala-D-Hiv-MeLeu-Leu-MeVal]]
